Experimental data from ChEMBL document CHEMBL5576124, “Discovery of an Exceptionally Orally Bioavailable and Potent HPK1 PROTAC with Enhancement of Antitumor Efficacy of Anti-PD-L1 Therapy” (J Med Chem, 2024).
The source made the active and inactive calls. No cut-off for these calls is given here.

Columns and labels:
[1] = molecular target: T1, Protein cereblon/Mitogen-activated protein kinase kinase kinase kinase 1 (Homo sapiens, UniProt Q92918+Q96SW2); test: PROTAC activity at CRBN/HPK1 in human Jurkat cells assessed as degradation of HPK1 protein incubated for 24 hrs by Western blotting analysis; format: cell-based
Target sequence in this assay (Q92918 whole entry): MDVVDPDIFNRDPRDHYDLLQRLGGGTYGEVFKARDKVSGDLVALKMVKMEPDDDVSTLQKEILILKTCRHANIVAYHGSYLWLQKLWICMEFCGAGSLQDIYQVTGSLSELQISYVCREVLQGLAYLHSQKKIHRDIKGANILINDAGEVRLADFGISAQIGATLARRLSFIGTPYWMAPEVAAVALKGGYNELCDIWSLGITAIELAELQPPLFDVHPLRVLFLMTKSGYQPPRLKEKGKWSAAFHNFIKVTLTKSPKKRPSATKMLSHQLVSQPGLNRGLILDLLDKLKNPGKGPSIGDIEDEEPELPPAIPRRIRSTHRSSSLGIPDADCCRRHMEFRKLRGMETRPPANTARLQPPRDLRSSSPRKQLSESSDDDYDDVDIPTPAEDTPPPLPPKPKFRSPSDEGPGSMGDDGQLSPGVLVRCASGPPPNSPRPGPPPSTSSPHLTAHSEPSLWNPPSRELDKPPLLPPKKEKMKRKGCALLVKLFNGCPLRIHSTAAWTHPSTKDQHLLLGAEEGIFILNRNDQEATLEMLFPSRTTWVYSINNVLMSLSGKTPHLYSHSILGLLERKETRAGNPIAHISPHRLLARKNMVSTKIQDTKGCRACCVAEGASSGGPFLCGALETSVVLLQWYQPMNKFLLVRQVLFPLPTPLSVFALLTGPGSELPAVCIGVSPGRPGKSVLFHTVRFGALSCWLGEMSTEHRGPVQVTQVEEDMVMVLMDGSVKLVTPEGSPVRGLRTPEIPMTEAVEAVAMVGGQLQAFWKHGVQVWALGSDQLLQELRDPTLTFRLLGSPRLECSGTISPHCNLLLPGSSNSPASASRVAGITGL
Target sequence in this assay (Q96SW2 whole entry): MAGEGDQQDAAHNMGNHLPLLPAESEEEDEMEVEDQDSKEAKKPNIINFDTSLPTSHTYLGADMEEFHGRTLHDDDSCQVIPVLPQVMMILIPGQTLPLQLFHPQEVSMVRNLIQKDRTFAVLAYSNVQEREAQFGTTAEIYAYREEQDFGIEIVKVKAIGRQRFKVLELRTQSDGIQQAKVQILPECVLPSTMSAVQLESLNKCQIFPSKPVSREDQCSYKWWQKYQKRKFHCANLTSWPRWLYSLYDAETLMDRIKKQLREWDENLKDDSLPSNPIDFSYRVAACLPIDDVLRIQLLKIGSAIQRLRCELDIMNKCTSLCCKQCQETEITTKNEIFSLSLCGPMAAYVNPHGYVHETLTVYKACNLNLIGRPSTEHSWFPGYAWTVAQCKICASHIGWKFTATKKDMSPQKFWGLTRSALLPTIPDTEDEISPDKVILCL

[2] = molecular target: T1, Protein cereblon/Mitogen-activated protein kinase kinase kinase kinase 1; test: PROTAC activity at CRBN/HPK1 in human Jurkat cells assessed as maximal degradation of HPK1 protein incubated for 24 hrs by Western blotting analysis relative to control; format: cell-based
Target sequence in this assay (Q92918 whole entry, looked up): as the sequence (Q92918 whole entry) above
Target sequence in this assay (Q96SW2 whole entry, looked up): as the sequence (Q96SW2 whole entry) above

[3] = Half life in Sprague-Dawley rat at 10 mg/kg,po measured upto 24 hrs by LC-MS analysis; format: ADME, organism-based; details: in vivo
[4] = Cmax in Sprague-Dawley rat at 10 mg/kg,po measured upto 24 hrs by LC-MS analysis; format: ADME, organism-based; details: in vivo
[5] = AUC (0 to t) in Sprague-Dawley rat at 10 mg/kg,po measured upto 24 hrs by LC-MS analysis; format: ADME, organism-based; details: in vivo
[6] = Stability in human liver microsomes assessed as parent compound remaining; format: ADME, Microsome
[7] = Stability in human liver microsomes assessed as parent compound remaining measured after 5 mins; format: ADME, Microsome; details: read-out: Stability
[8] = Stability in human liver microsomes assessed as parent compound remaining measured after 15 mins; format: ADME, Microsome; details: read-out: Stability
[9] = Stability in mouse liver microsomes assessed as parent compound remaining; format: ADME, Microsome
[10] = Stability in mouse liver microsomes assessed as parent compound remaining measured after 5 mins; format: ADME, Microsome; details: read-out: Stability
[11] = Stability in mouse liver microsomes assessed as parent compound remaining measured after 60 mins; format: ADME, Microsome; details: read-out: Stability
[12] = Metabolic stability in human liver microsomes assessed as half life; format: ADME, Microsome
[13] = Metabolic stability in mouse liver microsomes assessed as half life; format: ADME, Microsome
[14] = molecular target: T1, Protein cereblon/Mitogen-activated protein kinase kinase kinase kinase 1; test: PROTAC activity at CRBN/HPK1 in human Jurkat cells assessed as maximal degradation of HPK1 protein at 1 uM incubated for 24 hrs by Western blotting analysis relative to control; format: cell-based
Target sequence in this assay (Q92918 whole entry, looked up): as the sequence (Q92918 whole entry) above
Target sequence in this assay (Q96SW2 whole entry, looked up): as the sequence (Q96SW2 whole entry) above

[15] = molecular target: T1, Protein cereblon/Mitogen-activated protein kinase kinase kinase kinase 1; test: (§1) PROTAC activity at CRBN/HPK1 in human Jurkat cells assessed as degradation of HPK1 protein at 1 uM preincubated with MG132 followed by compound addition incubated for 24 hrs by Western blotting analysis; format: cell-based
Target sequence in this assay (Q92918 whole entry, looked up): as the sequence (Q92918 whole entry) above
Target sequence in this assay (Q96SW2 whole entry, looked up): as the sequence (Q96SW2 whole entry) above

[16] = molecular target: T1, Protein cereblon/Mitogen-activated protein kinase kinase kinase kinase 1; test: PROTAC activity at CRBN/HPK1 in human Jurkat cells assessed as degradation of HPK1 protein at 1 uM preincubated with MLN4924 followed by compound addition incubated for 24 hrs by Western blotting analysis; format: cell-based
Target sequence in this assay (Q92918 whole entry, looked up): as the sequence (Q92918 whole entry) above
Target sequence in this assay (Q96SW2 whole entry, looked up): as the sequence (Q96SW2 whole entry) above

[17] = molecular target: T1, Protein cereblon/Mitogen-activated protein kinase kinase kinase kinase 1; test: as §1, with “4-(2-(2,5-Dimethyl-1,2,3,4-tetrahydroisoquinolin-7-y1)-5H-pyrrolo[2,3-bipyrazin-7-y1)-N,N,2-trimethylbenzamide” for “MG132”; format: cell-based
Target sequence in this assay (Q92918 whole entry, looked up): as the sequence (Q92918 whole entry) above
Target sequence in this assay (Q96SW2 whole entry, looked up): as the sequence (Q96SW2 whole entry) above

Jurkat [18] = test: Immunostimulatory activity in anti-CD3/CD28 induced human Jurkat cells assessed as increase in IL-2 release incubated for 24 hrs by ELISA; format: functional, cell-based
Jurkat [19] = test: Immunostimulatory activity in anti-CD3/CD28 induced human Jurkat cells assessed as increase in IFN-gamma release incubated for 24 hrs by ELISA; format: functional, cell-based
Jurkat [20] = test: Immunostimulatory activity in anti-CD3/CD28 induced human Jurkat cells assessed as increase in IFN-gamma at 10 to 10000 nM incubated for 24 hrs in presence of PGE2 and NECA by ELISA; format: functional, cell-based; details: dose 10-10000 nM
T-cell line = test: Immunostimulatory activity in human T cell assessed as increase in IL-2 secretion; format: functional, cell-based
Jurkat [21] = test: Immunostimulatory activity in anti-CD3/CD28 induced human Jurkat cells assessed as downregulation of SLP76 expression by Western blotting analysis; format: functional, cell-based
Jurkat [22] = test: Immunostimulatory activity in anti-CD3/CD28 induced human Jurkat cells assessed as downregulation of SLP76 phosphorylation by Western blotting analysis; format: functional, cell-based
Jurkat [23] = test: Immunostimulatory activity in anti-CD3/CD28 induced human Jurkat cells assessed as downregulation of NF-kappaB expression by Western blotting analysis; format: functional, cell-based
Jurkat [24] = test: Immunostimulatory activity in anti-CD3/CD28 induced human Jurkat cells assessed as upregulation of JNK phosphorylation by Western blotting analysis; format: functional, cell-based
[25] = Cmax in ICR mouse at 1 mg/kg,iv measured upto 24 hrs by LC-MS analysis; format: ADME, organism-based; details: in vivo
[26] = AUC (0 to t) in ICR mouse at 1 mg/kg,iv measured upto 24 hrs by LC-MS analysis; format: ADME, organism-based; details: in vivo
[27] = Tmax in ICR mouse at 10 mg/kg,po measured upto 24 hrs by LC-MS analysis; format: ADME, organism-based; details: in vivo
CT26 = test: Antitumor activity against mouse CT26 cells implanted BALB/c mouse model assessed as tumor growth inhibition at 25 mg/kg,po administrated once daily for 15 days relative to control; format: functional; details: CT26, 360 h, time 15 day, read-out: TGI
[28] = Toxicity in BALB/c mouse implanted with mouse CT26 cells assessed as change in body weight at 25 mg/kg,po administrated once daily for 15 days; format: organism-based; details: in vivo, 360 h, time 15 day
[29] = molecular target: T1, Protein cereblon/Mitogen-activated protein kinase kinase kinase kinase 1; test: PROTAC activity at CRBN/HPK1 in human Jurkat cells assessed as degradation of HPK1 protein by Western blotting analysis; format: cell-based
Target sequence in this assay (Q92918 whole entry, looked up): as the sequence (Q92918 whole entry) above
Target sequence in this assay (Q96SW2 whole entry, looked up): as the sequence (Q96SW2 whole entry) above

[30] = molecular target: T1, Protein cereblon/Mitogen-activated protein kinase kinase kinase kinase 1; test: PROTAC activity at CRBN/HPK1 in human Jurkat cells assessed as downregulation of PFDN5 expression by Western blotting analysis; format: cell-based
[31] = molecular target: T1, Protein cereblon/Mitogen-activated protein kinase kinase kinase kinase 1; test: PROTAC activity at CRBN/HPK1 in human Jurkat cells assessed as upregulation of PCGF6 expression by Western blotting analysis; format: cell-based

`Cc1cc(-c2c[nH]c3ncc(-c4ccc(C5CCN(C6CN(c7ccc8c(c7)C(=O)N(C7CCC(=O)NC7=O)C8=O)C6)CC5)cc4)nc23)ccc1C(=O)N(C)C` (stereo not drawn) showed a DC50 [1] of 4.5 nM, an Emax [2] of 80.5% and a half-life [3] of 395 min. The Cmax [4] was 2090 ng/mL, the AUC(0-t) at 24 h [5] was 16400 ng·h/mL and the Stability [6] was 100%. For the same molecule, the remaining at 5 min [7] was 96.5%, the remaining at 0.25 h [8] was 101% and the Stability [9] was 100%. The remaining at 5 min [10] was 100%, the remaining at 1 h [11] was 59.4% and the half-life [12] was 990 min. For the same molecule, the half-life [13] was 75.3 min, the Activity [14] was 100% and the Activity [15] was “inactive”. For the same molecule, the Activity [16] was “inactive”, the Activity [17] was “Active” and the Activity (Jurkat [18]) was “Dose-Dependent Effect”. For the same molecule, the Activity (Jurkat [19]) was “Dose-Dependent Effect”, the Activity (Jurkat [20]) was “inactive” and the EC50 (T-cell line) was 12.9 nM. The Activity (Jurkat [21]) was “Active”, the Activity (Jurkat [22]) was “Active” and the Activity (Jurkat [23]) was “Active”. For the same molecule, the Activity (Jurkat [24]) was “Active”, the Cmax [25] was 3000 ng/mL and the AUC(0-t) at 24 h [26] was 16800 ng·h/mL. The Tmax [27] was 4 h, the inhibition in vivo at 25 mg/kg (CT26) was 47.2% and the Activity [28] was “Non-Toxic”. The Activity [29] was “Active”, the Activity [30] was “Active” and the Activity [31] was “Active”.
